Measurements: patent US7091351B2, “Vanadium compounds for treating cancer” (Parker Hughes Institute, priority 1998, dated 2006)

Tests used:
Format in all cases: cell-based, human
[1] = test system: Tera-2 testicular cancer cells; assay: Flow cytometric TUNEL apoptosis assay, TERA-2 cells; conditions: 24 h, TUNEL-positive nuclei
Description: A flow cytometric two-color terminal […] transferase (TdT)-mediated digoxigenin-uridine triphosphate (dUTP) nick-end labeling assay (TUNEL) was employed to detect apoptotic nuclei. Gavrieli, Y., Sherman, Y., Ben-Sasson, S. A. Identification of programmed cell death in situ via specific labeling of nuclear DNA fragmentation. J. Cell Biol., 119: 493–501, 1992. Exponentially growing cells (10^6/ml) were incubated in DMSO alone (0.1%) or treated with 100 μM each of the 16 vanadocenes (VDB, VDC, VMDC, VDI, VDA, VDCN, VDOCN, VDSCN, VDSeCN, VDT, VDCO, VDFe, VD(acac), VDH, VD(dpy), and VD(dtc) in 0.1% DMSO for 24 h. Cells were washed in PBS, fixed in 4% paraformaldehyde in PBS for 15 min on ice. Following two washings in PBS, they were permeabilized with 0.1% Triton X-100 in 0.1% sodium citrate for 2 min on ice, and washed twice in PBS. Labeling of exposed 3′-hydroxyl (3′-OH) ends of fragmented nuclear DNA was performed using TdT and fluorescein isothiocyanate (FITC)-conjugated dUTP according to the manufacturer's recommendations (Boehringer Mannheim, Indianapolis, Ind.). Cells were counterstained with 5 μg/ml PI. Control samples included: (i) untreated cells; (ii) cells incubated with the reaction mixture without the TdT enzyme. Cells were analyzed with a FACS Calibur flow cytometer (Becton Dickinson, Mountain View, Calif.). Relative DNA content (PI) was detected with band-pass filter 585/42, and dUTP incorporation (FITC) was detected with band-pass filter 530/30. Fluorescence was compensated for in the acquisition software using single-label control samples. Data were acquired in listmode, gated to 10,000 events per sample, and analyzed with the use of CELLQuest software program (Becton Dickinson). […] Vanadocene-induced apoptosis is shown by an increase in the number of cells staining with FITC-dUTP. The M1 and M2 gates were used to demarcate non-apoptotic and apoptotic PI-counterstained cell populations, respectively. TUNEL assays were performed using two testicular cell lines Tera-2 and Ntera-2 following exposure to each of the 16 vanadocenes. In other experiments, MC540 binding (as an early marker of apoptosis) and PI permeability (as a marker of advanced stage apoptosis) were simultaneously measured in human cancer cells 24 hours after exposure to vanadocenes, as previously described. Uckun, F. M., Narla, R. K., Jun, X., Zeren, T., Venkatachalam, T., Waddick, K. G., Rostostev, A., Myers, D. E. Cytotoxic activity of EGF-genstein against breast cancer cells. Clin. Cancer Res. 4:901–912, 1998. Vassilev, A., Ozer, Z., Navara, C., Mahajan, S., and Uckun, F. M. Bruton's tyrosine kinase as an inhibitor of the Fas/CD95 death-inducing signaling complex. J. Biol. Chem. 274:1646–56, 1999. Whole cells were analyzed using a FACStar Plus flow cytometer (Becton Dickinson, San Jose, Calif.). All analyses were done using 488 nm excitation from an argon laser. MC540 and PI emissions were split with a 600 nm short pass dichroic mirror and a 575 nm band pass filter was placed in front of one photomultiplier tube to measure MC540 emission and a 635 nm band pass filter was used for PI emission.

[2] = test system: BT20 breast cancer cells; assay: Cytotoxic activity of oxovanadium(IV) compounds, BT20; conditions: read-out: Cytotoxic Activity BT20
Description: (§1) The cytotoxicity of oxovanadium (W) complexes listed in Table 6 were tested against 9 different human cancer cell lines was performed using the MTT (3-[4,5-dimethylthiazol-2-yl]-2,5-diphenyl tetrazolium bromide) assay (Boehringer Mannheim Corp., Indianapolis, Ind.) as described previously (20). Briefly, exponentially growing tumor cells were seeded into a 96-well plate at a density of 4×10^4cells/well and incubated with medium containing the oxovanadium(IV) compounds concentrations ranging from 0.1 to 250 μM for 48 hours at 37° C. in a humidified 5% CO2 atmosphere. Triplicate wells were used for each treatment. To each well, 10 μl of MTT (0.5 mg/ml final concentration) was added and the plates were incubated at 37° C. for 4 hours to allow MTT to form formazan crystals by reacting with metabolically active cells . The formazan crystals were solubilized overnight at 37° C. in a solution containing 10% SDS in 0.01 M HCl. The absorbence of each well was measured in a microplate reader (Labsystems) at 540 nm and a reference wavelength of 690 nm. To translate the OD540 values into the number of live cells in each well, the OD540 values were compared to those on standard OD540—versus—cell number curves generated for each cell line. The percent survival was calculated using the formula: % survival=Live cell number[test]/Live cell number [control]×100. The IC50 values were calculated by non-linear regression analysis using an Graphpad Prism software version 2.0 (Graphpad Software, Inc., San Diego, Calif.).

[3] = test system: HS-SULTAN cells; assay: In situ detection of apoptosis, confocal microscopy, HS-SULTAN; conditions: 48 hours after treatment
Description: Exponentially growing cells were seeded in 6-well tissue culture plates and incubated with fresh medium containing compounds. […] The cells were fixed in 2% paraformaldehyde, washed with PBS and pelleted by centrifuging the tubes at 1000 rpm for 5 min. Cells pellets were resuspended in 50 μl of PBS, transferred to superforst plus slides and allowed to attach for 15 min. The cells were permeabilized with 0.1% triton X-100 in 0.1% citrate buffer and incubated for 1 hr at 37° C. with the reaction mixture containing terminal deoxynucleotidyl transferase (TdT) and fluorescein isothiocyanate (FITC)-conjugated dUTP. Cells were washed with PBS to remove unbound reagents and the coverslips were mounted onto slides with Vectashield containing propidium iodide (Vector Labs, Burlingame, Calif.) and slides were viewed with a confocal laser scanning microscope. […] In control reactions, the TdT enzyme was omitted from the reaction mixture.

[4] = test system: NTD1 testicular cancer cells; assay: Cytotoxic activity of oxovanadium(IV) compounds, NTD1; conditions: read-out: Cytotoxic Activity NTD1
Description: as §1

[Cl-].[Cl-].[V+4].c1cc[cH-]c1.c1cc[cH-]c1 [VDC, VCp2Cl2] was tested, and the “% Apoptosis at 100 μM TERA-2” value [1] was 88 (87, 89) %.

For “bis(4,7-dimethyl-1,10-phenanthroline)sulfatooxovanadium(IV) [Compound 29]”, the IC50 [2] was 1500 nM, the “apoptotic nuclei (FITC-dUTP / propidium iodide), HS-SULTAN” value [3] was “many apoptotic yellow nuclei” and the IC50 [4] was 10.8 µM.
